pIC50: −log10 of the molar value.

The term pIC50 denotes the IC50 on a negative log10 scale, so that one unit is a factor of ten.

One data set has as its target T1, BRD4BD1 (Homo sapiens, UniProt O60885).
T1 construct: His; purchased Reaction Biology
Kind of data set: AlphaScreen displacement binding assay with tetra-acetylated histone H4 peptide, BRD4BD1. Particulars: for pIC50: displacement of H4K5acK8acK12acK16ac peptide. On the procedure:
(§1) In effort to enhance its potency, we designed a new set of chemotypes by in silico screening. […] These compounds were synthesized and their activities toward BRD4BD1 and BRD4BD2 were assessed in a displacement binding assay using the polyacetylated histone H4 peptide H4K5acK8acK12acK16ac as a ligand (Fig. 1b).
(§2) PI3K activity screening and IC50 measurements were performed by Life Technologies (Thermo Fisher Scientific) using ADAPTA, a fluorescence-based in vitro assay.
On the technique in general: Bead proximity is the source of the signal in Alpha formats.

The next data set deals with T2, BRD4BD2 (Homo sapiens, UniProt O60885).
T2 construct: His; purchased Reaction Biology
Kind of data set: AlphaScreen displacement binding assay with tetra-acetylated histone H4 peptide, BRD4BD2. The settings on record: displacement of H4K5acK8acK12acK16ac peptide. On the procedure:
as §1, §2

The target of a further data set is T3, PI3Kα (Homo sapiens, UniProt P42336).
T3 construct: purchased Life Technologies (Thermo Fisher Scientific)
T3 sequence (P42336 whole entry): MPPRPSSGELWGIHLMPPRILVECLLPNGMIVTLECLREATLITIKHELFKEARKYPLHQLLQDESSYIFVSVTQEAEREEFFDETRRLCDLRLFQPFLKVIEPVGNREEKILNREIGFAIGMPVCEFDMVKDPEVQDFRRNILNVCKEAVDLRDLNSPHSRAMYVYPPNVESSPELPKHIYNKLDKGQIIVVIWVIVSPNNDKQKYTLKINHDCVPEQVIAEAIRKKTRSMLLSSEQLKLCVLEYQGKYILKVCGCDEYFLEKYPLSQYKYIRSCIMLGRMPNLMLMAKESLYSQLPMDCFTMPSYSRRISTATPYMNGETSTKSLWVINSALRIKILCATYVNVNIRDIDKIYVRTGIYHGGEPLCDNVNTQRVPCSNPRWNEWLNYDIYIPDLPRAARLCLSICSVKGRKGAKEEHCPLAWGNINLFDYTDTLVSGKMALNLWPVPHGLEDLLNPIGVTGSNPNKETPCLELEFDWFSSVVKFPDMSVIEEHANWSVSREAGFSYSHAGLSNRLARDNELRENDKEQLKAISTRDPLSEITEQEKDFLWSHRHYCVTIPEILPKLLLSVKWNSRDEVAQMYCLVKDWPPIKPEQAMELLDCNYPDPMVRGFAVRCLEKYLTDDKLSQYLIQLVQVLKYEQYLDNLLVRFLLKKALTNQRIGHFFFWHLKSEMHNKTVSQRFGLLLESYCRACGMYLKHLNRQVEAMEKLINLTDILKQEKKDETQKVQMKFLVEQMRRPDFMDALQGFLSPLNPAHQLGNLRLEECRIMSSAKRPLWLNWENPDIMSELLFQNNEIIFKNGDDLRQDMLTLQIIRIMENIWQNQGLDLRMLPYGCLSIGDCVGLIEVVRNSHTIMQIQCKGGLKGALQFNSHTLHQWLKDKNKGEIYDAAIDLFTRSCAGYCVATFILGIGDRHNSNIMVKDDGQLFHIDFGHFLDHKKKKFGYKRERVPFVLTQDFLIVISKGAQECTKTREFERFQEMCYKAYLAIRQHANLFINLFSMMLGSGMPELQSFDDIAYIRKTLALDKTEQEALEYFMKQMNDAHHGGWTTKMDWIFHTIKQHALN
T3 sequence (P27986 whole entry partner): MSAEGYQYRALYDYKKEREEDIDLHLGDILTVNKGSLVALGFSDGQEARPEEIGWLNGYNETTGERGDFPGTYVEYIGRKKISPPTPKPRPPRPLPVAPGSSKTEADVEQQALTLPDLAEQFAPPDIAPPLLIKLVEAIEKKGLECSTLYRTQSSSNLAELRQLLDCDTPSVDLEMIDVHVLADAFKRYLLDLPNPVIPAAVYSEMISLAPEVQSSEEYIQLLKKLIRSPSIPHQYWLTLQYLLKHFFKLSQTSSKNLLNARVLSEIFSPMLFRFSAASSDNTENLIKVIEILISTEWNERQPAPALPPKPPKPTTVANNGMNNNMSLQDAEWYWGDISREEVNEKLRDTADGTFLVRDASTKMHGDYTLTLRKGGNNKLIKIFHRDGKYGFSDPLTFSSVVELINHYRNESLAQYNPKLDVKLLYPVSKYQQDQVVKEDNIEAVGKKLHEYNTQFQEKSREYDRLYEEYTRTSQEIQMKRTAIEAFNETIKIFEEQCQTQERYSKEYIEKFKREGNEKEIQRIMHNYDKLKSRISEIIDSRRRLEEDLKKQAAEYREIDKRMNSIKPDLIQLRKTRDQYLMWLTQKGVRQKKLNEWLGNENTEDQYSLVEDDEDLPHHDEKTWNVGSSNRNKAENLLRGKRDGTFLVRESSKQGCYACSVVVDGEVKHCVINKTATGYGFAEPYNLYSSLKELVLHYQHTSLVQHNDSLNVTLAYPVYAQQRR
Kind of data set: PI3K kinase screening assay (ADAPTA). It counts as biochemical. On the procedure:
as §1, §2

The test system of a further data set is CHLA-255 cells. Kind of data set: Propidium iodide flow cytometry cell cycle analysis, CHLA-255. The settings on record: 24 h. It counts as cell-based. Here is the method: (§3) (Fig. 2a). […] Palbociclib was used as control given its known inhibition of CDK4/6 and resultant G1 cell cycle growth arrest. […] We next assessed the level of apoptosis by FITC-annexin V incorporation in each of these cell lines.
(§4) Huh7, CHLA-255, or Jeko-1 cells were seeded at 1.5 × 10^6 cells in 60-mm tissue culture dishes and allowed to adhere overnight. […] Cells were released with Accutase (Innovative Cell Technologies, San Diego, CA), washed with PBS and divided for either staining with the FITC Annexin V Apoptosis Detection Kit (BD Biosciences, San Jose, CA) or overnight fixation with ethanol followed by staining with propidium iodide (Roche, Basel, Switzerland) according to each manufacturers’ instructions. Cell staining was analyzed with the FACSCalibur flow cytometer (BD Biosciences) and FlowJo (FlowJo LLC, Ashland, Oregon) and ModFit LT (Verity Software House, Topsham, ME) software packages.

Data set [1] concerns Huh7 cells. Kind of data set: Propidium iodide flow cytometry cell cycle analysis, Huh7. It is filed as cell-based. Particulars: 24 h. Here is the method: as §3, §4
Background: A flow cytometer gives signals particle by particle.

Another data set concerns CDK4. Further details: method as in PMID 32793389. The settings on record: previously identified; cited from earlier work.
The subject of data set [2] is Huh7 subcutaneous xenografts. Kind of data set: Huh7 subcutaneous xenograft in NGS mice. It counts as in vivo. The settings on record: 30 mg/kg oral gavage, one week.
Protocol: (§7) Asterisks denote p ≤ 0.05 in comparison with vehicle control by unpaired Student’s t test.
(§8) All procedures involving animals were approved by the UCSD Animal Care Committee, which serves to ensure that all federal guidelines concerning animal experimentation are met. Six to eight week old NGS mice were implanted with 10^7 Huh7 or Jeko-1 cells in the right flank. When tumors reached ∼100 mm^3 after tumor implantation, animals were divided into four groups (n = 8 per group). […] Mice were treated for 1 week by oral gavage, 5 times per week.
Data set [3] deals with JeKo-1 subcutaneous xenografts. Kind of data set: JeKo-1 subcutaneous xenograft in NGS mice. It is filed as in vivo. Particulars: 40 mg/kg oral gavage, one week.
Protocol: as §7, §8
The subject of data set [4] is JeKo-1 cells. Kind of data set: Propidium iodide flow cytometry cell cycle analysis, JeKo-1. It is filed as cell-based. Particulars: 24 h. On the procedure: as §3, §4
The subject of data set [5] is Huh7 cells. Kind of data set: FITC-annexin V apoptosis assay, Huh7. It counts as cell-based. Particulars: treatment at the IC50, 24 h. Here is the method: as §3, §4
A further data set concerns PC3 cells. Kind of data set: CellTiter-Glo cell viability assay, PC3. It counts as cell-based. The settings on record: PTEN mutated, 48 h. The source says: (§5) Although many inhibitors of BRD4 have been developed, the importance of inhibition of both BDs to subdue pathological processes remains unclear, as the two bromodomains have high sequence similarity. We therefore examined whether inhibition of only one bromodomain of BRD4 could lead to sufficient anti-cancer effects.
(§6) All cell lines were obtained from ATCC and tested for mycoplasma and mouse pathogens and checked for authenticity against the International Cell Line Authentication Committee (ICLAC; https://iclac.org/databases/cross-contaminations/) list. Cell viability measurements were performed using CellTiter-Glo luminescent cell viability assay (Promega). […] Cell Titer Glow assay reagent (100 µl) was added to each well and incubated for 10 min at room temperature. Luminescence signal was measured in a Varioscan multimode reader.
On the technique in general: Cellular ATP, detected with luciferase, serves as a proxy for viable cell number.

Data set [6] concerns AKT phosphorylation at Ser473 (PI3K activity) in JeKo-1 cells. Kind of data set: Western blot of AKT phosphorylation at Ser473 in IgM-stimulated JeKo-1 cells. The settings on record: JeKo-1 cells stimulated with IgM, 1 h incubation, increasing concentrations up to 5 µM. It is filed as cell-based. Here is the method:
as §5
Cells were resuspended with 1 ml of RPMI-1640 (serum free) and stimulated with 10 µg/ml of goat F(ab) 2 anti-human IgM antibody (Southern Biotech Birmingham, AL, USA) at 37 °C for 10 min. Cells were then harvested and lysed with RIPA buffer followed by Western blot analysis for pAKT expression.

Data set [7] concerns JeKo-1 cells. Kind of data set: CellTiter-Glo cell viability assay, JeKo-1. The settings on record: Homo sapiens, mantle cell lymphoma, 48 h, read-out: IC50 anti-proliferative activity, JeKo-1. It is filed as cell-based.
Source text: as §5, §6

The next data set has as its system SKNBE-2 cells. Kind of data set: CellTiter-Glo cell viability assay, SKNBE-2. The settings on record: Homo sapiens, SKNBE2, 48 h, read-out: IC50 anti-proliferative activity, neuroblastoma (SKNBE-2). It is filed as cell-based.
Source text: as §5, §6

The test system of another data set is Mino cells. Kind of data set: CellTiter-Glo cell viability assay, Mino. It counts as cell-based. The settings on record: Homo sapiens, mantle cell lymphoma, 48 h, read-out: IC50 anti-proliferative activity, Mino.
Source text: as §5, §6

In a further data set the test system is Z138 cells. Kind of data set: CellTiter-Glo cell viability assay, Z138. It counts as cell-based. The settings on record: Homo sapiens, Z-138, mantle cell lymphoma, 48 h, read-out: IC50 anti-proliferative activity, Z138.
Source text: as §5, §6

In the next data set the test system is HCT116 cells. Kind of data set: CellTiter-Glo cell viability assay, HCT116. It counts as cell-based. Particulars: Homo sapiens, HCT-116, 48 h, read-out: IC50 anti-proliferative activity, colon carcinoma (HCT116).
Source text: as §5, §6

As for `O=c1cc(N2CCNCC2)oc2c(-c3ccc4c(c3)OCCO4)csc12` [SF2523P], the pIC50 on BRD4BD1 was 6.41; on BRD4BD2 it was 4.80; against PI3Kα it was 4.31.

Take `CN(C)C(=O)c1cc2cnc(Nc3ccc(-c4csc5c(=O)cc(N6CCOCC6)oc45)cc3)nc2n1C1CCCC1` [SRX3177]: in the data set with CHLA-255 cells, the “cell cycle arrest at low dosage (near the IC10), CHLA-255” value was “induction of G1 cell cycle arrest”. Besides, the mortality entry (mouse, in vivo, po) was “no treatment-related death”. Also, the “adverse effects / toxicity” value (oral gavage, one week) was “no adverse effects were noted”. Further, the animal weight entry (oral gavage, one week, vs vehicle) is “remained the same”. Also, in the data set with Huh7 cells [1], the “cell cycle arrest at higher doses (near the IC50), Huh7” value is reported as “induced G2 phase growth arrest” and the “cell cycle arrest at low dosage (near the IC10), Huh7” value is given as “induction of G1 cell cycle arrest”. Also, in the data set with CDK4, the pIC50 is 8.60. The “tumor growth vs vehicle control, Huh7 xenograft” value in data set [2] is reported as “significant abrogation of tumor growth”. For the same molecule, the “tumor growth vs vehicle control, JeKo-1 xenograft” value in data set [3] is “significant abrogation of tumor growth”. In addition, in the data set on JeKo-1 cells [4], the “cell cycle arrest at higher doses (near the IC50), JeKo-1” value is on record as “induced G2 phase growth arrest” and the “cell cycle arrest at low dosage (near the IC10), JeKo-1” value is given as “induction of G1 cell cycle arrest”. For the same molecule, the “induction of early apoptosis, Huh7” value with Huh7 cells [5] is “~ threefold”.

Take `O=C(NCc1cccnc1)c1cc(-c2csc3c(=O)cc(N4CCNCC4)oc23)cc2c1OCCO2` [SRX3212P]: the “cytotoxic activity in prostate cancer cell line PC3” value in the data set with PC3 cells is reported as “Neither inhibitor sensitized”. The “AKT phosphorylation at Ser473” value in data set [6] was “did not decrease AKT phosphorylation”. Further, the pIC50 at BRD4BD1 was 7.57; in the data set with JeKo-1 cells [7] it was 5.51; on BRD4BD2, 5.55; in the data set on SKNBE-2 cells, 4.82; at PI3Kα it was 5.24; with Mino cells, 5.41. In the data set with Z138 cells, the negative logarithm of the IC50 (pIC50) was 5.54.

Consider `O=C(NCc1cccnc1)c1cc(-c2csc3c(=O)cc(N4CCOCC4)oc23)cc2c1OCCO2` [SRX3212], for which the “cytotoxic activity in prostate cancer cell line PC3” value in the data set on PC3 cells was “Neither inhibitor sensitized”. Besides, the “AKT phosphorylation at Ser473” value in [6] is “concomitant decrease in levels of AKT phosphorylation at Ser473”. For the same molecule, the “increase in potency of SRX3212 compared to SRX3212P” value at BRD4BD1 (BRD4BD1) is “sevenfold”. The pIC50 on BRD4BD1 was 8.43; with JeKo-1 cells [7], 6.55; on BRD4BD2, 7.49; with SKNBE-2 cells it was 5.49; on PI3Kα, 7.66; in the data set with Mino cells it was 6.36. Further, the values for the pIC50 in the data set on Z138 cells and in the data set with HCT116 cells were 6.62 and 5.89, respectively.

The values are drawn from publication PMC7374098, “Design of thienopyranone-based BET inhibitors that bind multiple synthetic lethality targets” (Scientific Reports, 2020).
